In patent US20020052295A1, “Diacyl derivatives of propylene diamine having herbicidal activity” (priority 1999, published 2002):

Columns and labels:
ABUTH [1] = experiment: Post-emergence herbicidal activity on ABUTH (velvetleaf); format: in vivo, Abutilon theophrasti; details: post-emergence spray; lowest tested rate with 80% or greater inhibition; about 14 days after treatment
Text: (§1) All such uses, and the biological activity enabling such uses, are embraced by the term “herbicidal” herein. Tables 15 and 16 summarize results of tests conducted as described below to determine the pre-emergence herbicidal activity, in the form of a GR80 value, of illustrative compounds of this invention. […] Where herbicidal activity was evident but 80% inhibition was not achieved at the highest rate tested (typically 1000 g/ha), an asterisk (*) is shown in the following tables. Herbicidal activity evident in the form of symptoms of phytotoxicity, in the absence of at least 80% inhibition at any rate, is indicated in the tables by “phyto”. A blank cell in the following tables indicates no herbicidal or phytotoxic response at any rate tested.
(§2) In another set of tests, the post-emergence activity of compounds of this invention was evaluated on the cool season species listed above. The following procedure was used.
(§3) A pre-prepared topsoil mixture (described above) was placed in a pot and compacted to a depth of 1.0 to 1.25 cm from the top of the pot. Seeds of each of several monocotyledonous and dicotyledonous annual plant species were placed on top of the soil The seeds were covered with a mixture of 50% topsoil and 50% Rediearth™ in sufficient quantity to level-fill the pots. The pots were then placed on a greenhouse bench and subirrigated as needed until plants growing from the seeds had emerged and reached a suitable growth stage for post-emergence treatment, typically 9 to 14 days after planting.
(§4) A known amount of each test compound dissolved or suspended in an appropriate organic solvent was diluted with a 50:50 mix of acetone and water and applied to the plants by spraying with a standard spray nozzle in a spray volume of 3,100 l/ha at a spray pressure of […] (30 psig). Control plants were not sprayed.
(§5) After treatment the plants were placed in a greenhouse with a 30/21° C. day/night temperature regime and were subsequently watered as needed for growth. Approximately 14 days after treatment, the plants were observed and herbicidal efficacy recorded as percent inhibition by comparison with control plants.

SOLNI [2] = experiment: Post-emergence herbicidal activity on SOLNI (black nightshade); format: in vivo, Solanum nigrum; details: post-emergence spray; lowest tested rate with 80% or greater inhibition; about 14 days after treatment
Text: as §1, §2, §3, §4, §5

AMARE [3] = experiment: Post-emergence herbicidal activity on AMARE (redroot pigweed); format: in vivo, Amaranthus retroflexus; details: post-emergence spray; lowest tested rate with 80% or greater inhibition; about 14 days after treatment
Text: as §1, §2, §3, §4, §5

DATST [4] = experiment: Post-emergence herbicidal activity on DATST (jimsonweed); format: in vivo, Datura stramonium; details: post-emergence spray; lowest tested rate with 80% or greater inhibition; about 14 days after treatment
Text: as §1, §2, §3, §4, §5

CHEAL [5] = experiment: Post-emergence herbicidal activity on CHEAL (common lambsquarters); format: in vivo, Chenopodium album; details: post-emergence spray; lowest tested rate with 80% or greater inhibition; about 14 days after treatment
Text: as §1, §2, §3, §4, §5

CONAR [6] = experiment: Post-emergence herbicidal activity on CONAR (field bindweed); format: in vivo, Convolvulus arvensis; details: post-emergence spray; lowest tested rate with 80% or greater inhibition; about 14 days after treatment
Text: as §1, §2, §3, §4, §5

POROL [7] = experiment: Post-emergence herbicidal activity on POROL (common purslane; table head prints PORAL); format: in vivo, Portulaca oleracea; details: post-emergence spray; lowest tested rate with 80% or greater inhibition; about 14 days after treatment
Text: as §1, §2, §3, §4, §5

CIRAR [8] = experiment: Post-emergence herbicidal activity on CIRAR (canada thistle, seedling); format: in vivo, Cirsium arvense; details: post-emergence spray; lowest tested rate with 80% or greater inhibition; about 14 days after treatment
Text: as §1, §2, §3, §4, §5

ECHCG [9] = experiment: Post-emergence herbicidal activity on ECHCG (barnyardgrass); format: in vivo, Echinochloa crus-galli; details: post-emergence spray; lowest tested rate with 80% or greater inhibition; about 14 days after treatment
Text: as §1, §2, §3, §4, §5

PANMI [10] = experiment: Post-emergence herbicidal activity on PANMI (wild proso millet); format: in vivo, Panicum miliaceum; details: post-emergence spray; lowest tested rate with 80% or greater inhibition; about 14 days after treatment
SORHA [11] = experiment: Post-emergence herbicidal activity on SORHA (johnsongrass, seedling); format: in vivo, Sorghum halepense; details: post-emergence spray; lowest tested rate with 80% or greater inhibition; about 14 days after treatment
Text: as §1, §2, §3, §4, §5

PANDI [12] = experiment: Post-emergence herbicidal activity on PANDI (fall panicum); format: in vivo, Panicum dichotomiflorum; details: post-emergence spray; lowest tested rate with 80% or greater inhibition; about 14 days after treatment
Text: as §1, §2, §3, §4, §5

SORVU [13] = experiment: Post-emergence herbicidal activity on SORVU (shattercane); format: in vivo, Sorghum vulgare; details: post-emergence spray; lowest tested rate with 80% or greater inhibition; about 14 days after treatment
Text: as §1, §2, §3, §4, §5

BRAPP [14] = experiment: Post-emergence herbicidal activity on BRAPP (broadleaf signalgrass); format: in vivo, Brachiaria platyphylla; details: post-emergence spray; lowest tested rate with 80% or greater inhibition; about 14 days after treatment
Text: as §1, §2, §3, §4, §5

DIGSA [15] = experiment: Post-emergence herbicidal activity on DIGSA (large crabgrass); format: in vivo, Digitaria sanguinalis; details: post-emergence spray; lowest tested rate with 80% or greater inhibition; about 14 days after treatment
ABUTH [16] = experiment: Pre-emergence herbicidal activity on ABUTH (velvetleaf); format: in vivo, Abutilon theophrasti; details: lowest tested rate giving 80% or greater inhibition, approx. 14 days after planting and treating, greenhouse
Outline: (§6)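 Whole-plant pre-emergence assay: compound diluted into 50:50 acetone:water and applied over covered seeds in sterilized soil. Growth at 30/21 °C under mist/subirrigation; inhibition vs untreated at ~14 days, reported as GR80 over rates to typically 1000 g/ha.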

SOLNI [17] = experiment: Pre-emergence herbicidal activity on SOLNI (black nightshade); format: in vivo, Solanum nigrum; details: lowest tested rate giving 80% or greater inhibition, approx. 14 days after planting and treating, greenhouse
Outline: as §6

AMARE [18] = experiment: Pre-emergence herbicidal activity on AMARE (redroot pigweed); format: in vivo, Amaranthus retroflexus; details: lowest tested rate giving 80% or greater inhibition, approx. 14 days after planting and treating, greenhouse
Outline: as §6

DATST [19] = experiment: Pre-emergence herbicidal activity on DATST (jimsonweed); format: in vivo, Datura stramonium; details: lowest tested rate giving 80% or greater inhibition, approx. 14 days after planting and treating, greenhouse
Outline: as §6

CHEAL [20] = experiment: Pre-emergence herbicidal activity on CHEAL (common lambsquarters); format: in vivo, Chenopodium album; details: lowest tested rate giving 80% or greater inhibition, approx. 14 days after planting and treating, greenhouse
Outline: as §6

CONAR [21] = experiment: Pre-emergence herbicidal activity on CONAR (field bindweed); format: in vivo, Convolvulus arvensis; details: lowest tested rate giving 80% or greater inhibition, approx. 14 days after planting and treating, greenhouse
Outline: as §6

POROL [22] = experiment: Pre-emergence herbicidal activity on POROL (common purslane); format: in vivo, Portulaca oleracea; details: lowest tested rate giving 80% or greater inhibition, approx. 14 days after planting and treating, greenhouse
Outline: as §6

CIRAR [23] = experiment: Pre-emergence herbicidal activity on CIRAR (canada thistle, seedling); format: in vivo, Cirsium arvense; details: lowest tested rate giving 80% or greater inhibition, approx. 14 days after planting and treating, greenhouse
Outline: as §6

ECHCG [24] = experiment: Pre-emergence herbicidal activity on ECHCG (barnyardgrass); format: in vivo, Echinochloa crus-galli; details: lowest tested rate giving 80% or greater inhibition, approx. 14 days after planting and treating, greenhouse
Outline: as §6

PANMI [25] = experiment: Pre-emergence herbicidal activity on PANMI (wild proso millet); format: in vivo, Panicum miliaceum; details: lowest tested rate giving 80% or greater inhibition, approx. 14 days after planting and treating, greenhouse
Outline: as §6

SORHA [26] = experiment: Pre-emergence herbicidal activity on SORHA (johnsongrass, seedling); format: in vivo, Sorghum halepense; details: lowest tested rate giving 80% or greater inhibition, approx. 14 days after planting and treating, greenhouse
Outline: as §6

SETFA = experiment: Pre-emergence herbicidal activity on SETFA (giant foxtail); format: in vivo, Setaria faberi; details: lowest tested rate giving 80% or greater inhibition, approx. 14 days after planting and treating, greenhouse
Outline: as §6

PANDI [27] = experiment: Pre-emergence herbicidal activity on PANDI (fall panicum); format: in vivo, Panicum dichotomiflorum; details: lowest tested rate giving 80% or greater inhibition, approx. 14 days after planting and treating, greenhouse
Outline: as §6

SORVU [28] = experiment: Pre-emergence herbicidal activity on SORVU (shattercane); format: in vivo, Sorghum vulgare; details: lowest tested rate giving 80% or greater inhibition, approx. 14 days after planting and treating, greenhouse
Outline: as §6

BRAPP [29] = experiment: Pre-emergence herbicidal activity on BRAPP (broadleaf signalgrass); format: in vivo, Brachiaria platyphylla; details: lowest tested rate giving 80% or greater inhibition, approx. 14 days after planting and treating, greenhouse
Outline: as §6

DIGSA [30] = experiment: Pre-emergence herbicidal activity on DIGSA (large crabgrass); format: in vivo, Digitaria sanguinalis; details: lowest tested rate giving 80% or greater inhibition, approx. 14 days after planting and treating, greenhouse
Outline: as §6

Structure (SMILES): O=C(NCC(CCl)NC(=O)c1cccc(C(F)(F)F)c1)c1cccc(C(F)(F)F)c1 (stereo not drawn) [Example 12, N,N′-(3-chloro-1,2-propanediylbis)-3-(trifluoromethyl)benzamide]
- Post-emergence activity (GR80) ABUTH (ABUTH [1]): [empty]
- Post-emergence activity (GR80) SOLNI (SOLNI [2]): [empty]
- Post-emergence activity (GR80) AMARE (AMARE [3]): [empty]
- Post-emergence activity (GR80) DATST (DATST [4]): [empty]
- Post-emergence activity (GR80) CHEAL (CHEAL [5]): [empty]
- Post-emergence activity (GR80) CONAR (CONAR [6]): [empty]
- Post-emergence activity (GR80) PORAL (POROL [7]): 1000 g/ha
- Post-emergence activity (GR80) CIRAR (CIRAR [8]): 1000 g/ha
- Post-emergence activity (GR80) ECHCG (ECHCG [9]): [empty]
- Post-emergence activity (GR80) PANMI (PANMI [10]): [empty]
- Post-emergence activity (GR80) SORHA (SORHA [11]): [empty]
- Post-emergence activity (GR80) PANDI (PANDI [12]): [empty]
- Post-emergence activity (GR80) SORVU (SORVU [13]): [empty]
- Post-emergence activity (GR80) BRAPP (BRAPP [14]): [empty]
- Post-emergence activity (GR80) DIGSA (DIGSA [15]): [empty]

Structure (SMILES): CC(CNC(=O)c1cccc(C(F)(F)F)c1)NC(=O)c1cccc(F)c1F (stereo not drawn) [Example 34]
- Pre-emergence activity (GR80) on ABUTH (ABUTH [16]): 500 g/ha
- Pre-emergence activity (GR80) on SOLNI (SOLNI [17]): 250 g/ha
- Pre-emergence activity (GR80) on AMARE (AMARE [18]): 125 g/ha
- Pre-emergence activity (GR80) on DATST (DATST [19]): 250 g/ha
- Pre-emergence activity (GR80) on CHEAL (CHEAL [20]): 125 g/ha
- Pre-emergence activity (GR80) on CONAR (CONAR [21]): 750 g/ha
- Pre-emergence activity (GR80) on PORAL (POROL [22]): 125 g/ha
- Pre-emergence activity (GR80) on CIRAR (CIRAR [23]): 125 g/ha
- Pre-emergence activity (GR80) on ECHCG (ECHCG [24]): 1000 g/ha
- Pre-emergence activity (GR80) on PANMI (PANMI [25]): 250 g/ha
- Pre-emergence activity (GR80) on SORHA (SORHA [26]): 750 g/ha
- Pre-emergence activity (GR80) on SETFA (SETFA): 250 g/ha
- Pre-emergence activity (GR80) on PANDI (PANDI [27]): 125 g/ha
- Pre-emergence activity (GR80) on SORVU (SORVU [28]): phyto
- Pre-emergence activity (GR80) on BRAPP (BRAPP [29]): 250 g/ha
- Pre-emergence activity (GR80) on DIGSA (DIGSA [30]): 125 g/ha
- Post-emergence activity (GR80) ABUTH (ABUTH [1]): phyto
- Post-emergence activity (GR80) SOLNI (SOLNI [2]): phyto
- Post-emergence activity (GR80) AMARE (AMARE [3]): 750 g/ha
- Post-emergence activity (GR80) DATST (DATST [4]): 750 g/ha
- Post-emergence activity (GR80) CHEAL (CHEAL [5]): * (Where herbicidal activity was evident but 80% inhibition was not achieved at the highest rate tested (typically 1000 g/ha), an asterisk (*) is shown)
- Post-emergence activity (GR80) CONAR (CONAR [6]): * (Where herbicidal activity was evident but 80% inhibition was not achieved at the highest rate tested (typically 1000 g/ha), an asterisk (*) is shown)
- Post-emergence activity (GR80) PORAL (POROL [7]): 250 g/ha
- Post-emergence activity (GR80) CIRAR (CIRAR [8]): 1000 g/ha
